Measured values: PMC3480206 (Future microbiology, 2012)
Converted amounts (≈) assume the structure as drawn.

How the values were obtained:
EMB-resistant Mtb = conditions: cited from earlier work
[1] = tested on: Mycobacterium tuberculosis; experiment: Alamar MIC; format: cell-based; conditions: TAACF
[2] = tested on: Mycobacterium tuberculosis XDR strains; experiment: microbe, parasite or virus in culture; format: cell-based

Compound | MIC on EMB-resistant Mtb (EMB-resistant Mtb) [µg/mL] | MIC ([1]; ATCC35822, INH-resistant, ATCC 35822, Alamar) [µg/mL] | MIC ([1]; ATCC35838, RIF-resistant, ATCC 35838, Alamar) [µg/mL] | MIC ([1]; CIP-resistant, Alamar) [µg/mL] | MIC ([1]; EMB-resistant, Alamar) [µg/mL] | MIC ([1]; KAN-resistant, Alamar) [µg/mL] | MIC ([2]; Mycobacterium tuberculosis) [µg/mL] | MIC ([2]; XDR, also EMB-resistant, strain 587W1, Microbroth) [µg/mL]
CC[C@@H](CO)NCCN[C@@H](CC)CO [EMB, ethambutol] | 184 (≈ 901 µM) | – | – | – | – | – | – | –
CC(C)=CCC/C(C)=C/CNCCNC1C2CC3CC(C2)CC1C3 (centres unmarked) [SQ109, N-geranyl-N′-(2-adamantyl)ethane-1,2-diamine] | – | 0.78 (≈ 2.36 µM) | ≤ 0.39 | ≤ 0.39 | 0.78 (≈ 2.36 µM) | 0.78 (≈ 2.36 µM) | 0.2 (≈ 0.605 µM) | 0.20 (≈ 0.605 µM)
